From patent US9457044B2, “Methods and compositions for wound healing” (CoDa Therapeutics, Inc., priority 2006, dated 2016)

What was measured:
[1] = test system: myofibroblasts; test: Anti-α smooth muscle actin staining of myofibroblasts in granulation tissue; assay type: in vivo, mice
Experimental: (§1) Male, 8 week old, ICR mice were used in the following experiments. All the mice were kept under specific pathogen-free conditions in an environmentally controlled clean room at University College London and all the experiments were carried out under UK Home Office regulations. Mice were anaesthetized by halothane inhalation. Four full-thickness excisional wounds of 6 mm diameter were made on the shaved back on either side of the dorsal midline with a 6 mm biopsy punch (Kai Industries). To each pair of wounds a single topical application of 50 μl of 1 μM Cx43 as ODN (SEQ. ID No. 2) (Sigma-Genosys) in 30% Pluronic F-127 gel (Sigma-Aldrich), chilled on ice, was made to one wound, and an identical application of 1 μM sense control sODNs was made to the other. […] R. and Becker, D. L. (2003). Targeting connexin 43 expression accelerates the rate of wound repair. Curr Biol 13, 1697-703). Each wound region was digitally photographed at the indicated time intervals, and the areas of the wounds were calculated. All wound areas were expressed as percentages of the initial wound areas. In some series of experiments, wounds and their surrounding area, including the scab and epithelial margins, were harvested with an 8 mm biopsy punch (Kai Industries) at the indicated time intervals after mice were killed with an overdose of chloroform. A minimum of eight mice were used for each time point examined.
Immunostaining for connexin 43, blood vessels or a smooth muscle actin was carried out on cryostat sections of wounds. Sections were fixed in acetone at 4° C. for 5 minutes prior to blocking for 45 minutes. Incubation in primary antibody was for one hour at the following dilutions: rabbit anti-Cx43 (Sigma) 1:3,000; isoLectin B_FITC 1:2000; von Willebrand Factor (rabbit Dako) 1:400; anti-α smooth muscle actin (Sigma) 1:400 at room temperature. […]
A treatment-blinded observer counted MPO-positive neutrophils and F4/80-positive macrophages in the wound bed (defined as the area surrounded by unwounded skin, fascia, regenerated epidermis, and eschar) in 3 random high-power fields of 0.332 mm^2. BrdU-positive cells in the wound margin and the nascent epidermis regions of each immunohistochemically stained section were counted as described previously and expressed per […] of epidermis (Mori, R., Kondo, T., Nishie, T., Ohshima, T. and Asano, M. (2004). Impairment of skin wound healing in beta-1,4-galactosyltransferase-deficient mice with reduced leukocyte recruitment. Am J Pathol 164, 1303-14). Number of fibroblast like cells (phalloidin-positive cells with spindle-shape body) at the wound margin were counted in high-power fields also (each field was 0.332 mm^2). […] Images were made binary at a standard threshold and positive pixels were counted using Image J (NIH Image).

[2] = test system: Cx43 protein; settings: within two hours; Becker 1999, McGonnell 2001, Qiu 2003; cited from earlier work
[3] = test system: hydroxyproline; test: Hydroxyproline analysis of collagen content of wound area; design: species or system mice; settings: mouse, in vivo
Experimental: as §1, with “Targeting connexin 43 expression accelerates the rate of wound repair. Curr Biol 13, 1697-703).” left out, “In some series of experiments, wounds and their surrounding area, including the scab and epithelial margins, were harvested with an 8 mm biopsy punch (Kai Industries) at the indicated time intervals after mice were killed with an overdose of chloroform. A minimum of eight mice were used for each time point examined.” left out
The collagen content of the wound area was assessed by determining the amount of hydroxyproline (HP), a major component of collagen. […] Concentrations of protein were measured using a BCA™ Protein Assay Kit (PIERCE Biotechnology Inc.), and the amounts of HP were determined with Sircol™ Soluble Collagen Assay Kit (Biocolor Ltd.). The data were expressed as amounts of HP/total protein (ng/μg) for each sample.

## GTAATTGCGGCAGGAGGAATTGTTTCTGTC (antisense GTAATTGCGGCAGGAGGAATTGTTTCTGTC; in Pluronic F-127 gel, further chemistry not given here) [Cx43 asODN]
[1]; 10 days after wounding, P=0.000002 versus control
  SMA staining at the edges of the granulation tissue: most of the staining for SMA had gone
[1]; day 5, no staining in control wounds
  SMA staining: could be detected at the edges of the granulation tissue
[1]; day 7, P=0.004 versus control
  SMA staining at the edges of the granulation tissue, quantified: significantly higher
[1]; mouse, in vivo
  advance over controls in maturation of granulation tissue: 2 to 3 days
[2]
  knockdown of Cx43 protein at the site of delivery: significant knockdown
[3]
  hydroxyproline in treated wounds: increased
